Results reported in patent US12133856B2, “Multi-substituent psilocybin derivatives and methods of using” (Enveric Biosciences Canada Inc., priority 2021, dated 2024).
Read-outs that look alike come from different tables or passages of the source.

Tests used:
[1] = biological target: T1, 5-HT1A receptor (Homo sapiens, UniProt P08908); assay: cAMP-Glo assay of 5-HT1A receptor modulation with 4 μM forskolin in CHO-K1/5-HT1A/Gα15 (+5-HT1A) versus CHO-K1/Gα15 (−5-HT1A) cells; format: cell-based; conditions: fixed 4 μM forskolin; cAMP relative (%) to ligand-free samples; decrease = 5-HT1A activity, no difference = no modulation
T1 construct: host or cells: CHO-K1 (co-expressing Gα15)
T1 sequence (P08908 1-422): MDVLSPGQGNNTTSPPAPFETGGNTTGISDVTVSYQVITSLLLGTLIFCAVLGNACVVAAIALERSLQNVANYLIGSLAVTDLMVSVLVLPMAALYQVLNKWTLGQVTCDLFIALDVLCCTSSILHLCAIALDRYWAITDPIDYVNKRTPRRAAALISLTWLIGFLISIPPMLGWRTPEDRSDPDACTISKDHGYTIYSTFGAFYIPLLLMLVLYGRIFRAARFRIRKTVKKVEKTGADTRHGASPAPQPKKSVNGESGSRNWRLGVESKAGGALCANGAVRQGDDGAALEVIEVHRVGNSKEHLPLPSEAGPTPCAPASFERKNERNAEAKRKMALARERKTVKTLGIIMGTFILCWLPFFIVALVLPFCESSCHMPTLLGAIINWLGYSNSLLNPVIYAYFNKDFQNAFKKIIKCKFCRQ
Text: CHO-K1/Gα15 (GenScript, M00257) (−5-HT1A) and CHO-K1/5-HT1A/Gα15 (GenScript, M00330) (+5-HT1A) cells lines were used. Briefly, CHO-K1/Gα15 is a control cell line that constitutively expresses Gα15 which is a promiscuous Gq protein. This control cell line lacks any transgene encoding 5-HT1A receptors, but still responds to forskolin; thus, cAMP response to forskolin should be the same regardless of whether or not 5-HT1A agonists are present. Conversely, CHO-K1/5-HT1A/Gα15 cells stably express 5-HT1A receptor in the CHO-K1 host background. […] In +5-HT1A cells, Gα15 may be recruited in place of Gαi/o, which could theoretically dampen cAMP response (Rojas and Fiedler 2016, Front Cell Neurosci 10: 272). […] In contrast, tryptophan is not known to activate, or modulate in any way, 5-HT1A receptors, and was thus used as a negative control. Cells were maintained in complete growth media as recommended by supplier (GenScript) which is constituted as follows: Ham's F12 Nutrient mix (HAM's F12, GIBCO #11765-047) with 10% fetal bovine serum (FBS) (Thermo Scientific #12483020), 200 μg/ml zeocin (Thermo Scientific #R25005) and/or 100 μg/ml hygromycin (Thermo Scientific #10687010). The cells were cultured in a humidified incubator with 37° C. and 5% CO2. Cells maintenance was carried out as recommended by the cell supplier. Briefly, vials with cells were removed from the liquid nitrogen and thawed quickly in 37° C. water bath. Just before the cells were completely thawed the vial's outside was decontaminated by 70% ethanol spray. The cell suspension was then retrieved from the vial and added to warm (37° C.) complete growth media, and centrifuged at 1,000 rpm for 5 minutes. The supernatant was discarded, and the cell pellet was then resuspended in another 10 ml of complete growth media, and added to the 10 cm cell culture dish (Greiner Bio-One #664160). The media was changed every third day until the cells were about 90% confluent. The ˜90% confluent cells were then split 10:1 for maintenance or used for experiment.
As 5-HT1A activation inhibits cAMP formation, the ability of test molecules to modulate 5-HT1A response was measured via changes in the levels of cAMP produced due to application of 4 μM forskolin. […] Briefly, +5-HT1A cells were seeded on 1-6 columns and base −5-HT1A cells were seeded on columns 7-12 of the white walled clear bottom 96-well plate (Corning, #3903). Both cells were seeded at the density of 30,000 cells/well in 100 μl complete growth media and cultured 24 hrs in humidified incubator at 37° C. and 5% CO2. On the experiment day, the media of cells was replaced with serum/antibiotic free culture media. […] Forskolin induced cAMP formation whereas IBMX and RO 20-1724 inhibited the degradation of cAMP. PKA was added to the lysate, mixed, and subsequently the substrate of the PKA was added. PKA was activated by cAMP, and the amount of ATP consumed due to PKA phosphorylation directly corresponded to cAMP levels in the lysate.

[2] = biological target: T2, 5-HT2A (Homo sapiens, UniProt P28223); assay: Radioligand competition binding assay with [3H]ketanserin (scintillation proximity assay) on membranes containing 5-HT2A; parameters: purchased PerkinElmer ES-313-M400UA; conditions: for competition binding curve result at 5-HT2A receptor (binding / no binding): controls, FIG. 15C
T2 sequence (P28223 whole entry): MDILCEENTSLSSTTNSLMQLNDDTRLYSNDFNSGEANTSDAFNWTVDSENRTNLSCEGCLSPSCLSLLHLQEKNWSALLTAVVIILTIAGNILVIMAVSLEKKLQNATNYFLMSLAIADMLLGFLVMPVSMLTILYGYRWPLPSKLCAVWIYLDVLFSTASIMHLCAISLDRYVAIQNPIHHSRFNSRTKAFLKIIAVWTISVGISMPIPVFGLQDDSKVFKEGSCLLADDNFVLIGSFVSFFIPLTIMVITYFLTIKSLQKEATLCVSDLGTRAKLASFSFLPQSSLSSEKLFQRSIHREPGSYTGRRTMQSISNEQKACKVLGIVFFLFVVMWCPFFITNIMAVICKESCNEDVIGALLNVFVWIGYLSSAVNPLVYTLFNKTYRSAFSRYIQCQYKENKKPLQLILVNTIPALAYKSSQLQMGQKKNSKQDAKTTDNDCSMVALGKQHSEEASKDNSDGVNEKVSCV
Experimental: Ki values were calculated from the competition displacement data using the competitive binding analysis from GraphPad PRISM software.

[3] = biological target: T2, 5-HT2A; conditions: cited from earlier work

## CC(=O)NCCc1c[nH]c2cc(F)cc(N)c12 [(IX)]
[1]
  % cAMP in +5HT1A compared to −5HT1A cultures as dosages increase: no significant difference
[2]; fixed 1 nM [3H]ketanserin, test compound 3 nM to 1 mM, FIG. 15D
  specific binding in competition with [3H]ketanserin for 5-HT2A sites (competition not complete): ~50%

## CC(=O)NCCc1c[nH]c2cc(NC(C)=O)cc(F)c12 [(X)]
[1]
  % cAMP in +5HT1A compared to −5HT1A cultures as dosages increase: no significant difference
[2]; [3H]ketanserin competition, FIG. 16B, indicates comparatively 'loose' binding
  Ki value at 5-HT2A compared with that of psilocin (in words): relatively high

## CNC(C)Cc1ccc2c(c1)OCO2 (centres unmarked) [MDMA]
[3]
  Ki values for 5-HT2A (in words): micromolar range

## COc1cc(CCN)cc(OC)c1OC [mescaline]
[3]; literature values signifying mild or 'loose' binding profiles
  Ki values for 5-HT2A (in words): micromolar range

## CN(C)CCc1c[nH]c2cccc(O)c12 [psilocin]
[1]
  % cAMP in +5HT1A compared to −5HT1A cultures as dosages increase: decreased % cAMP
[2]; fixed 1 nM [3H]ketanserin
  competition binding curve result at 5-HT2A receptor (binding / no binding): binding

## NCCc1c[nH]c2ccc(O)cc12 [serotonin]
[1]
  % cAMP in +5HT1A compared to −5HT1A cultures as dosages increase: decreased % cAMP

## N[C@@H](Cc1c[nH]c2ccccc12)C(=O)O [tryptophan]
[1]
  % cAMP in +5HT1A compared to −5HT1A cultures as dosages increase: no significant difference
[2]; fixed 1 nM [3H]ketanserin
  competition binding curve result at 5-HT2A receptor (binding / no binding): no binding
